Laboratory results: article PMC5775429, “LY2087101 and dFBr share transmembrane binding sites in the (α4)3(β2)2 Nicotinic Acetylcholine Receptor” (Scientific Reports, 2018)
Where “and” joins values, the source holds several entries; their conditions need not be identical. Identical values can stand only once.

Key:
Assay in all cases: Two-electrode voltage-clamp of ACh-induced currents in Xenopus oocytes
Assay type in all cases: cell-based
[1] = molecular target: T1, (α4S284G)3(β2)2 nAChR (Homo sapiens, UniProt P17787+P43681, S284G)
T1 construct: expressed in transfected cells; host or cells: Xenopus laevis oocytes injected with cRNA
T1 sequence (P43681 29-627 S284G limits assumed): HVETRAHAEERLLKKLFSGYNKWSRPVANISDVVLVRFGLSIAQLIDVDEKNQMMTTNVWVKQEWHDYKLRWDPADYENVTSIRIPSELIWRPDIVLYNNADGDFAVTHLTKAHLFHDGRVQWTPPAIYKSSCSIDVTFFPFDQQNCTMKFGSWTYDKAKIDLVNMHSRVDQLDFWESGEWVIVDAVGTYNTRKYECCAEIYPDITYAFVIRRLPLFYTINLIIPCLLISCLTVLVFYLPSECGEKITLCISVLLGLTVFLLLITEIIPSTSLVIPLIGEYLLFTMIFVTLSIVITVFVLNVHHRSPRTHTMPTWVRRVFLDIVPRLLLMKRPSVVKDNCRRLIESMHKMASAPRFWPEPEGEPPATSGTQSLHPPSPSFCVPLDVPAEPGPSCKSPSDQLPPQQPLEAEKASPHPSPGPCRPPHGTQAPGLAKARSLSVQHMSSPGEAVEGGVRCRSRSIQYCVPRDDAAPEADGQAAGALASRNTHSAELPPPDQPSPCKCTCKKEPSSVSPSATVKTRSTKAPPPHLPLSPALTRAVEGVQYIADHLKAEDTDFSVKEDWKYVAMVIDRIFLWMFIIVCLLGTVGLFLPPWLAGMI
T1 sequence (P17787 26-502, stated change not applied): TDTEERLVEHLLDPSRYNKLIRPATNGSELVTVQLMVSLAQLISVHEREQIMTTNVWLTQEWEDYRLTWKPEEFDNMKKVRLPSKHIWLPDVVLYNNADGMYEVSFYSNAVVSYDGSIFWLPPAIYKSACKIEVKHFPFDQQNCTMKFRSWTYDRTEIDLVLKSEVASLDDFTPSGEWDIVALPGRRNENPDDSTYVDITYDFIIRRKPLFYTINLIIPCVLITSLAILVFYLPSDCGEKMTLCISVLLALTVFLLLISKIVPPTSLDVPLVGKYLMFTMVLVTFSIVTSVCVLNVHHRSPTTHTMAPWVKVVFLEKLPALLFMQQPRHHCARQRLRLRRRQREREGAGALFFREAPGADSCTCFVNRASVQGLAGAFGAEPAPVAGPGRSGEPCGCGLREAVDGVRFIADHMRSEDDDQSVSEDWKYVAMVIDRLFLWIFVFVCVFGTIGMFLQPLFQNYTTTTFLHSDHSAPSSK
Method: (§1) For amino acid substitutions within the α4 nAChR subunit, point mutations were introduced into pSP64ployA plasmid with cDNA encoding for human α4 nAChR subunit with mutagenic primer pairs using the Quick Change II Site-Directed Mutagenesis Kit (Agilent Technologies) then confirmed by DNA sequencing (GENEWIZ, LLC, South Plainfield, NJ). cRNA transcripts suitable for oocyte expression were prepared in vitro from linearized plasmids [α3 (BamH1), α4 (AseI), β2 (PvuII), β4 (XhoI)] using mMESSAGE mMACHINE high yield capped RNA transcription kits (Ambion) and purified on NucAway Spin column (Invitrogen). cRNA concentration was determined by spectroscopy (Concentration (ug/ul) = Abs260 * 40), aliquoted and stored at −80 °C until used.
(§2) Ovarian lobules were surgically harvested from oocytes-positive female Xenopus laevis (NASCO, Fort Atkinson, WI) according to an animal use protocol approved by the Texas A&M Health Sciences Center Institutional Animals Care and Use Committee. The Texas A&M Health Sciences Center Research Facility is registered as an animal research facility with the United States Department of Agriculture and is fully accredited by the American Association for Accreditation of Laboratory Animal Care (AAALAC). For oocytes defolliculation, ovarian lobes were treated with 3 mg/ml collagenase type 2 (Worthington Biomedical, Lakewood, NJ) in Ca + 2-free buffer (85 mM NaCl, 2.5 mM KCl, 1 mM MgCl2, 5 mM HEPES, pH 7.6). Collagenase treatment was allowed to proceed for 3 hours at room temperature with gentle shaking then oocytes were washed several times with buffer to remove collagenase then with ND96-gentamicine buffer. Healthy Stage V and VI oocytes were visually selected and maintained at 18 °C in modified ND96-gentamicine buffer (96 mM NaCl, 2 mM KCl, 1.8 mM CaCl2, 1 mM MgCl2, 5 mM HEPES, 50 µg/ml gentamicin, pH 7.6). Oocytes were injected with 50–100 ng of the desired nAChR subunits cRNA mix at ratios of 8α:1β or 1α:8β to express nAChRs with subunit stoichiometries of 3α:2β (low agonist sensitivity) or 2α:3β (high agonist sensitivity), respectively.
(§3) Oocytes were continuously perfused with recording buffer (100 mM NaCl, 2 mM KCl, 1 mM CaCl2, 0.8 mM MgCl2, 1 mM EGTA, 10 mM Hepes, pH 7.5) except during periods of drug applications.

[2] = molecular target: T2, (α4L310F)3(β2)2 nAChR (Homo sapiens, UniProt P17787+P43681, L310F)
T2 construct: expressed in transfected cells; host or cells: Xenopus laevis oocytes injected with cRNA
T2 sequence (P43681 29-627 L310F limits assumed): as the sequence (P43681 29-627 S284G limits assumed) above, with G256S, L282F counted along it
T2 sequence (P17787 26-502): as the sequence (P17787 26-502, stated change not applied) above
Method: as §1, §2, §3

[3] = molecular target: T3, (α4I608L)3(β2)2 nAChR (Homo sapiens, UniProt P17787+P43681, I608L)
T3 construct: expressed in transfected cells; host or cells: Xenopus laevis oocytes injected with cRNA
T3 sequence (P43681 29-627 I608L limits assumed): as the sequence (P43681 29-627 S284G limits assumed) above, with G256S, I580L counted along it
T3 sequence (P17787 26-502): as the sequence (P17787 26-502, stated change not applied) above
Method: as §1, §2, §3

[4] = molecular target: (α4L256F)3(β2)2 nAChR (Homo sapiens, UniProt P43681, L256F)
(α4L256F)3(β2)2 nAChR, sequence (P43681 29-627 L256F limits assumed): as the sequence (P43681 29-627 S284G limits assumed) above, with L228F, G256S counted along it
(α4L256F)3(β2)2 nAChR, sequence (P17787 26-502 partner): as the sequence (P17787 26-502, stated change not applied) above
Method: as §1, §2, §3

[5] = molecular target: (α4E308V)3(β2)2 nAChR (Homo sapiens, UniProt P43681, E308V)
(α4E308V)3(β2)2 nAChR, sequence (P43681 29-627 E308V limits assumed): as the sequence (P43681 29-627 S284G limits assumed) above, with G256S, E280V counted along it
(α4E308V)3(β2)2 nAChR, sequence (P17787 26-502 partner): as the sequence (P17787 26-502, stated change not applied) above
Method: as §1, §2, §3

[6] = molecular target: T4, (α4T261D)3(β2)2 nAChR (Homo sapiens, UniProt P17787+P43681, T261D)
T4 construct: expressed in transfected cells; host or cells: Xenopus laevis oocytes injected with cRNA
T4 sequence (P43681 29-627 T261D limits assumed): as the sequence (P43681 29-627 S284G limits assumed) above, with T233D, G256S counted along it
T4 sequence (P17787 26-502): as the sequence (P17787 26-502, stated change not applied) above
Method: as §1, §2, §3

[7] = molecular target: (α4G613L)3(β2)2 nAChR (Homo sapiens, UniProt P43681, G613L)
(α4G613L)3(β2)2 nAChR, sequence (P43681 29-627 G613L limits assumed): as the sequence (P43681 29-627 S284G limits assumed) above, with G256S, G585L counted along it
(α4G613L)3(β2)2 nAChR, sequence (P17787 26-502 partner): as the sequence (P17787 26-502, stated change not applied) above
Method: as §1, §2, §3

[8] = molecular target: (α4S258M)3(β2)2 nAChR (Homo sapiens, UniProt P43681, S258M)
(α4S258M)3(β2)2 nAChR, sequence (P43681 29-627 S258M limits assumed): as the sequence (P43681 29-627 S284G limits assumed) above, with S230M, G256S counted along it
(α4S258M)3(β2)2 nAChR, sequence (P17787 26-502 partner): as the sequence (P17787 26-502, stated change not applied) above
Method: as §1, §2, §3

[9] = molecular target: T5, (α4H332Y)3(β2)2 nAChR (Homo sapiens, UniProt P17787+P43681, H332Y)
T5 construct: expressed in transfected cells; host or cells: Xenopus laevis oocytes injected with cRNA
T5 sequence (P43681 29-627 H332Y limits assumed): as the sequence (P43681 29-627 S284G limits assumed) above, with G256S, H304Y counted along it
T5 sequence (P17787 26-502): as the sequence (P17787 26-502, stated change not applied) above
Method: as §1, §2, §3

[10] = molecular target: T6, (α4I315A)3(β2)2 nAChR (Homo sapiens, UniProt P17787+P43681, I315A)
T6 construct: expressed in transfected cells; host or cells: Xenopus laevis oocytes injected with cRNA
T6 sequence (P43681 29-627 I315A limits assumed): as the sequence (P43681 29-627 S284G limits assumed) above, with G256S, I287A counted along it
T6 sequence (P17787 26-502): as the sequence (P17787 26-502, stated change not applied) above
Method: as §1, §2, §3

[11] = molecular target: T7, (α4F606Y)3(β2)2 nAChR (Homo sapiens, UniProt P17787+P43681, F606Y)
T7 construct: expressed in transfected cells; host or cells: Xenopus laevis oocytes injected with cRNA
T7 sequence (P43681 29-627 F606Y limits assumed): as the sequence (P43681 29-627 S284G limits assumed) above, with G256S, F578Y counted along it
T7 sequence (P17787 26-502): as the sequence (P17787 26-502, stated change not applied) above
Method: as §1, §2, §3

[12] = molecular target: T8, (α4M605I)3(β2)2 nAChR (Homo sapiens, UniProt P17787+P43681, M605I)
T8 construct: expressed in transfected cells; host or cells: Xenopus laevis oocytes injected with cRNA
T8 sequence (P43681 29-627 M605I limits assumed): as the sequence (P43681 29-627 S284G limits assumed) above, with G256S, M577I counted along it
T8 sequence (P17787 26-502): as the sequence (P17787 26-502, stated change not applied) above
Method: as §1, §2, §3

[13] = molecular target: T9, (α4)3(β2)2 nAChR (Homo sapiens, UniProt P17787+P43681)
T9 construct: expressed in transfected cells; host or cells: Xenopus laevis oocytes injected with cRNA
T9 sequence (P43681 29-627 limits assumed): as the sequence (P43681 29-627 S284G limits assumed) above, with G256S counted along it
T9 sequence (P17787 26-502): as the sequence (P17787 26-502, stated change not applied) above
Method: To begin to characterize LY2087101 interaction with the heteropentameric α4β2 nAChRs, we examined the selectivity of LY2087101 for the two α4β2 nAChR isoforms; high-agonist sensitivity (α4)2(β2)3 and low-agonist sensitivity (α4)3(β2)2 nAChRs. Xenopus oocytes were injected with α4 and β2 subunits RNAs at ratios 8:1 and 1:8 to favor expression of (α4)3(β2)2 and (α4)2(β2)3 nAChRs, respectively.
as §2, §3

[14] = molecular target: T10, α4β2 nAChR (Homo sapiens, UniProt P17787+P43681); conditions: 1 μM PAM
T10 construct: expressed in transfected cells; host or cells: Xenopus laevis oocytes injected with cRNA
T10 sequence (P43681 29-627 limits assumed): as the sequence (P43681 29-627 S284G limits assumed) above, with G256S counted along it
T10 sequence (P17787 26-502): as the sequence (P17787 26-502, stated change not applied) above
Method: (§4) Next, Xenopus oocytes were injected with RNA mixes of […], α3:β4, […], or α4:β4 at ratios of 8:1, 1:1, or 1:8 to express nAChRs with different subunit composition and with various α:β ratios.
as §2, §3

[15] = molecular target: T11, α4β4 nAChR (Homo sapiens, UniProt P30926+P43681); conditions: 1 μM PAM
T11 construct: expressed in transfected cells; host or cells: Xenopus laevis oocytes injected with cRNA
T11 sequence (P43681 29-627 limits assumed): as the sequence (P43681 29-627 S284G limits assumed) above, with G256S counted along it
T11 sequence (P30926 22-498): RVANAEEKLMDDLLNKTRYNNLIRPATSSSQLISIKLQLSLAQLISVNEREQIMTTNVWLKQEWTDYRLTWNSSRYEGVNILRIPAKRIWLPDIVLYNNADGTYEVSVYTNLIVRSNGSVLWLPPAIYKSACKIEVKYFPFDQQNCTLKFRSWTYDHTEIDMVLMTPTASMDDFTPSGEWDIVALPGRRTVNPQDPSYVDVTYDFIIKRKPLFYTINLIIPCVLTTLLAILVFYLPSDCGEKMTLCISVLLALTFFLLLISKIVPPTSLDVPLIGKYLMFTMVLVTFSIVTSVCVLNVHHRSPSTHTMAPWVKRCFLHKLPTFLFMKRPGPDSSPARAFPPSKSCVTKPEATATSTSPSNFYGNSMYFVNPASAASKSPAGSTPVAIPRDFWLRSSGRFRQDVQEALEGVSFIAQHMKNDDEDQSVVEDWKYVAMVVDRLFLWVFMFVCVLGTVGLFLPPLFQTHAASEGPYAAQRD
Method: as §4, §2, §3

[16] = 10 µM ACh + 1 µM PAM vs 10 µM ACh alone
[17] = normalized to peak current by 10 µM ACh alone, curve fit
[18] = read-out: LY2087101 potentiation EC50
[19] = ACh concentration-response curve, normalized to 1 mM ACh alone
[20] = normalized to 10 µM ACh alone, not from curve fitting, maximum seen at any concentration up to 10 µM LY2087101

Cc1nc(Nc2ccc(F)cc2)sc1C(=O)c1ccsc1 [LY2087101, [2-[(4-Fluorophenyl)amino]-4-methyl-5-thiazolyl]-3-thienylmethanone]
R, potentiation ratio (PR) [1, 16]: 3.8 ± 0.4
LY2087101 potentiation Imax% [1, 17]: 537 ± 20%
EC50 [1, 18]: 0.7 ± 0.1 µM
R, potentiation ratio (PR) [2, 16]: 9.8 ± 1.0
EC50 [2, 18]: 3.1 ± 0.1 µM
R, potentiation ratio (PR) [3, 16]: 4.4 ± 0.6
LY2087101 potentiation Imax% [3, 17]: 840 ± 31%
EC50 [3, 18]: 1.2 ± 0.1 µM
R, potentiation ratio (PR) [4, 16]: 1.0 ± 0.1
ACh Imax in the presence of 1 µM LY2087101 [4, 19]: 104 ± 09%
R, potentiation ratio (PR) [5, 16]: 1.7 ± 0.2
LY2087101 potentiation Imax% [5, 20]: 270 ± 30%
R, potentiation ratio (PR) [6, 16]: 1.6 ± 0.1
ACh Imax in the presence of 1 µM LY2087101 [6, 19]: 180 ± 23%
LY2087101 potentiation Imax% [6, 17]: 215 ± 29%
EC50 [6, 18]: 2.4 ± 1.6 µM
R, potentiation ratio (PR) [7, 16]: 1.09 ± 0.1
ACh Imax in the presence of 1 µM LY2087101 [7, 19]: 112 ± 9%
R, potentiation ratio (PR) [8, 16]: 1.5 ± 0.2
ACh Imax in the presence of 1 µM LY2087101 [8, 19]: 232 ± 10%
LY2087101 potentiation Imax% [8, 20]: 254 ± 12%
R, potentiation ratio (PR) [9, 16]: 4.2 ± 0.5
LY2087101 potentiation Imax% [9, 17]: 573 ± 20%
EC50 [9, 18]: 1.3 ± 0.1 µM
R, potentiation ratio (PR) [10, 16]: 2.5 ± 0.2
LY2087101 potentiation Imax% [10, 17]: 405 ± 5%
EC50 [10, 18]: 1.2 ± 0.5 µM
R, potentiation ratio (PR) [11, 16]: 2.3 ± 0.3
ACh Imax in the presence of 1 µM LY2087101 [11, 19]: 144 ± 13% and 144 ± 013%
LY2087101 potentiation Imax% [11, 17]: 195 ± 13%
EC50 [11, 18]: 0.3 ± 0.2 µM
R, potentiation ratio (PR) [12, 16]: 4.5 ± 0.2
LY2087101 potentiation Imax% [12, 17]: 756 ± 27%
EC50 [12, 18]: 0.8 ± 0.1 µM
R, potentiation ratio (PR) ([13]; 10 µM ACh + 1 µM PAM vs 10 µM ACh alone, WT): 4.1 ± 0.3
ACh Imax in the presence of 1 µM LY2087101 [13, 19]: 251 ± 19% and ~ 250%
EC50 ([13]; co-applied with 10 µM ACh, LS WT, read-out: LY2087101 potentiation EC50): 1.4 µM and 1 to 2 µM
potentiation of ACh responses [14]: potentiated
potentiation of ACh responses [15]: potentiated
